Consider ten compounds from ChEMBL document CHEMBL5465560, “Selectivity Literature for EUbOPEN Chemogenomic Library” (2024).

SMILES strings stand for the structures. pIC50: −log10 of the molar value.

The target of assay [1] is Serine/threonine-protein kinase Chk2 (Homo sapiens) (UniProt O96017). In words: Selectivity interaction (Upstate Kinase Profiler service (Millipore)) EUB0000056c CHEK2. The conditions noted are these: at 1 µM.
The target in assay [2] is Casein kinase I isoform gamma-1 (Homo sapiens) (UniProt Q9HCP0). The conditions noted are these: at 10 µM.
Assay [3] addresses Cyclin-dependent kinase 17 (Homo sapiens) (UniProt Q00537). In words: Selectivity interaction (KinomeScan (DiscoverX)) EUB0001079a CDK17. The conditions noted are these: at 1 µM.
Assay [4] has as its target T1, Serine/threonine-protein kinase 36 (Homo sapiens) (UniProt Q9NRP7).
T1 sequence (whole entry): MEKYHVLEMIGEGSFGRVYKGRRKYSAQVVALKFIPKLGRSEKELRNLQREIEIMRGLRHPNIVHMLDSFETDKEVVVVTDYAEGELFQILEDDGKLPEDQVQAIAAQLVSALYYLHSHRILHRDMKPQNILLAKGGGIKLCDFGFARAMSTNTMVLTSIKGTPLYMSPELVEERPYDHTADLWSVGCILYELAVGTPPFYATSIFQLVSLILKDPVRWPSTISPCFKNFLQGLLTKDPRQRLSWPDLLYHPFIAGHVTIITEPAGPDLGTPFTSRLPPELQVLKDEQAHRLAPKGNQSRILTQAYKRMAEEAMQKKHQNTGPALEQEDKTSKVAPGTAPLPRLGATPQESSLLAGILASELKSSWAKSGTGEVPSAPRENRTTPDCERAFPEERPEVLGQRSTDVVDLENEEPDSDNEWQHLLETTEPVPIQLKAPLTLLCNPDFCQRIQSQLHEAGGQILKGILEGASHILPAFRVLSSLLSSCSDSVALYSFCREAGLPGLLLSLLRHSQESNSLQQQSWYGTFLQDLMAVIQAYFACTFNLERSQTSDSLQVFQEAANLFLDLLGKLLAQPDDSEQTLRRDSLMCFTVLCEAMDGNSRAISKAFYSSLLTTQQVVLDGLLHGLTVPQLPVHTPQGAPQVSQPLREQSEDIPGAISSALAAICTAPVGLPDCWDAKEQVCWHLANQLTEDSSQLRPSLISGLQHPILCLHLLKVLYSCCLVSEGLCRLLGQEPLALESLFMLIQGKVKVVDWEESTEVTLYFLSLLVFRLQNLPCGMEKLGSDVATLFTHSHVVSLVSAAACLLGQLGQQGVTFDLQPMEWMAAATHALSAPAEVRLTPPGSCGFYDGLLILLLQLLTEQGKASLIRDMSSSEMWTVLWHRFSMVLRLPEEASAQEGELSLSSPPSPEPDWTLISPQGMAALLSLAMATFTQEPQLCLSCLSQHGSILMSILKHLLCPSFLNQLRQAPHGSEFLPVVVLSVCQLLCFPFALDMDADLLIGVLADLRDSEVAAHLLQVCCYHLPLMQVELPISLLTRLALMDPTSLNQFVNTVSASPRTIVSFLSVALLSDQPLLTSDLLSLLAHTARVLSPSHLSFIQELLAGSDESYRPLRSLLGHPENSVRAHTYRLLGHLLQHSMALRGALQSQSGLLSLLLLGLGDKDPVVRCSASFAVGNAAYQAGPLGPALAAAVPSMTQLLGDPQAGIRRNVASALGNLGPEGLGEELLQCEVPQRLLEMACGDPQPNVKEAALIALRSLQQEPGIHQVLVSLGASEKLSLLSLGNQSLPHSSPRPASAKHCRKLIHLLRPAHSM
Description: Selectivity interaction (KinomeScan (DiscoverX)) EUB0001079a STK36. The conditions noted are these: at 1 µM.

In assay [5] the target is RAC-beta serine/threonine-protein kinase (Homo sapiens) (UniProt P31751). Description: Selectivity interaction (KinomeScan (DiscoverX)) EUB0000092b AKT2. The conditions noted are these: at 10 µM.
Assay [6] has as its target Serine/threonine-protein kinase VRK2 (Homo sapiens) (UniProt Q86Y07). Description: Selectivity interaction (KinomeScan (DiscoverX)) EUB0000092b VRK2. The conditions noted are these: at 10 µM.
The target of assay [7] is Serine/threonine-protein kinase 25 (Homo sapiens) (UniProt O00506). In words: Selectivity interaction (KinomeScan (DiscoverX)) EUB0001049a STK25. The conditions noted are these: at 1 µM.
Assay [8] concerns the target Mitogen-activated protein kinase 7 (Homo sapiens) (UniProt Q13164). In words: Selectivity interaction (KinomeScan (DiscoverX)) EUB0000045b MAPK7.
The target in assay [9] is MAP kinase-interacting serine/threonine-protein kinase 2 (Homo sapiens, UniProt Q9HBH9). Description: Selectivity interaction (KinomeScan (DiscoverX)) EUB0000607a MKNK2. The conditions noted are these: at 10 µM.
In assay [10] the target is T2, Tyrosine-protein kinase ZAP-70 (Homo sapiens, UniProt P43403).
T2 sequence (P43403 whole entry): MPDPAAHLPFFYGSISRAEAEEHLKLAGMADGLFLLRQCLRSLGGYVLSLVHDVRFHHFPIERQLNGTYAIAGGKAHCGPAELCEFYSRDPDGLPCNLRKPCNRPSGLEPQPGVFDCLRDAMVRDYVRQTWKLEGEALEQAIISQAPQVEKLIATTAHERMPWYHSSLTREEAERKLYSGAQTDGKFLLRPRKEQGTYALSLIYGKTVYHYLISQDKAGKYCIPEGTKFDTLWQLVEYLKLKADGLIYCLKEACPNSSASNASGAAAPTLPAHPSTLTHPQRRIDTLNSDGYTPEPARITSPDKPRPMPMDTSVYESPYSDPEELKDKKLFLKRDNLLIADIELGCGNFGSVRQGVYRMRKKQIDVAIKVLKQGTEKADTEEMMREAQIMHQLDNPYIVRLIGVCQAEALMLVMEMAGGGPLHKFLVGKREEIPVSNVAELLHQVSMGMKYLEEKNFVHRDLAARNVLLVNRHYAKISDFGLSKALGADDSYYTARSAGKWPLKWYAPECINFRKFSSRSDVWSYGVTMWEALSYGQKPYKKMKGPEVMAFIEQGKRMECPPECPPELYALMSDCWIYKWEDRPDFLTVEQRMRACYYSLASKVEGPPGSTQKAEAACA

The target of assay [11] is Serine/threonine-protein kinase OSR1 (Homo sapiens) (UniProt O95747). In words: Selectivity interaction (KinomeScan (DiscoverX)) EUB0000229b OXSR1. The conditions noted are these: at 10 µM.
The target in assay [12] is Serine/threonine-protein kinase N1 (Homo sapiens, UniProt Q16512). In words: Selectivity interaction (KinomeScan (DiscoverX)) EUB0000595a PKN1. The conditions noted are these: at 10 µM.

Broadly, the pIC50 is the negative decadic logarithm of the IC50, by convention in mol/L. A lower pIC50 goes with a high IC50.

Mitogen-activated protein kinase 7 (Homo sapiens), sequence (Q13164 2-816 limits assumed): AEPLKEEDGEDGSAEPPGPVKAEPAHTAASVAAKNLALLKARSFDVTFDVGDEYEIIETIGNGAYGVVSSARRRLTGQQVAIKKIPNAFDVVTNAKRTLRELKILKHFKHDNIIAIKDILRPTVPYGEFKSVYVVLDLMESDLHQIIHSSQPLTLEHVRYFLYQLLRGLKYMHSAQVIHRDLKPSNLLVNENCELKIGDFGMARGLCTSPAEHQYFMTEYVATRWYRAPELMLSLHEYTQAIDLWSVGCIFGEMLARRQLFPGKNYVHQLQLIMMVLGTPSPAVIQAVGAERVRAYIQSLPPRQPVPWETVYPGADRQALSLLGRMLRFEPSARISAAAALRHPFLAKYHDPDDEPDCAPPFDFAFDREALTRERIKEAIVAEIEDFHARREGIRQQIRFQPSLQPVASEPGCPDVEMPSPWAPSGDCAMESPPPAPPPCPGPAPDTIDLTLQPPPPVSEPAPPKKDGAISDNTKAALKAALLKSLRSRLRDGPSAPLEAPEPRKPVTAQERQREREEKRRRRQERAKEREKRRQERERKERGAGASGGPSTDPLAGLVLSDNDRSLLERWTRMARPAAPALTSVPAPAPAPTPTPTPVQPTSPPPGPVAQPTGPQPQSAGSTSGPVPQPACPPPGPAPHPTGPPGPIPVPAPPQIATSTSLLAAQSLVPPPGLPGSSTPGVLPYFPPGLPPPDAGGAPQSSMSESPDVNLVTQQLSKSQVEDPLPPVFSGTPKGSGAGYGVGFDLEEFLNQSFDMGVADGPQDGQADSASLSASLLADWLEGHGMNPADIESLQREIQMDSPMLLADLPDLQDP
Serine/threonine-protein kinase OSR1 (Homo sapiens), sequence (O95747 2-527 limits assumed): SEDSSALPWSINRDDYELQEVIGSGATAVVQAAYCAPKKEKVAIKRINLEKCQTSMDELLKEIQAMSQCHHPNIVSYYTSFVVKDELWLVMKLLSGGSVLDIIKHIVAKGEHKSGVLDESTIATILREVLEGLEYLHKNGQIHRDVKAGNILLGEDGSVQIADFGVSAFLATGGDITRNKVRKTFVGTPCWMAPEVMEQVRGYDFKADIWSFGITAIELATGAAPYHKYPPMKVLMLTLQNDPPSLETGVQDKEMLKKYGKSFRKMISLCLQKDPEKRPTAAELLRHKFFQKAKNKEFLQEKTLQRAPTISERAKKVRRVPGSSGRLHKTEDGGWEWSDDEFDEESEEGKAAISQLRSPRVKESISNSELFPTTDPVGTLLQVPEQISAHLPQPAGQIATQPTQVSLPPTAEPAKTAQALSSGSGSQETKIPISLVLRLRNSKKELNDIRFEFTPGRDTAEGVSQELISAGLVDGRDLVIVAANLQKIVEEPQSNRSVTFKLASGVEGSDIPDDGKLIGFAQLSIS
Serine/threonine-protein kinase N1, sequence (Q16512 2-942 limits assumed): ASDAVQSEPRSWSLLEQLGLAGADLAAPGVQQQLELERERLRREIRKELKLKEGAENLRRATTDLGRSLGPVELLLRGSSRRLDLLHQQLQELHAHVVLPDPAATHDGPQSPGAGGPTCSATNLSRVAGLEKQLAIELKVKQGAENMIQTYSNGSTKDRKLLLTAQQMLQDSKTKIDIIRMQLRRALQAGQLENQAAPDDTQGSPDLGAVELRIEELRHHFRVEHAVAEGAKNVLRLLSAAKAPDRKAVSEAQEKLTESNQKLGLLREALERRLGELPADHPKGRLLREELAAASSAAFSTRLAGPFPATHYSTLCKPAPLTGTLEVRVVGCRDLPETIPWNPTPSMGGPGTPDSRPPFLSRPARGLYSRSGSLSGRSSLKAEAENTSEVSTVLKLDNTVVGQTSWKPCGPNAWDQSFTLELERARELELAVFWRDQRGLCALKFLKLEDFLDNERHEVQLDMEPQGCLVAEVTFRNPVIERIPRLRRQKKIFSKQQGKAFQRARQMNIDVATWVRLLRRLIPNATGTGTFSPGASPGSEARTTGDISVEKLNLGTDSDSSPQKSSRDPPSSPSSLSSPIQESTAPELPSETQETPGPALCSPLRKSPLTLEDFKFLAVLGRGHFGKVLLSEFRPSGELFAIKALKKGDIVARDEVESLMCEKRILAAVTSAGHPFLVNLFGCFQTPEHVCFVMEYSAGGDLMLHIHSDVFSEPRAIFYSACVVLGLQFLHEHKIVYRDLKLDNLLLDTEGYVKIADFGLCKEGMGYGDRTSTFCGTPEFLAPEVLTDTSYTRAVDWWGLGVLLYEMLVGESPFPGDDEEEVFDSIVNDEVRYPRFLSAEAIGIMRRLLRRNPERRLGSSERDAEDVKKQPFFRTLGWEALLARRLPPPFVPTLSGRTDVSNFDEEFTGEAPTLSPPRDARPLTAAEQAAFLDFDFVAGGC
Serine/threonine-protein kinase VRK2 (Homo sapiens), sequence (Q86Y07 whole entry): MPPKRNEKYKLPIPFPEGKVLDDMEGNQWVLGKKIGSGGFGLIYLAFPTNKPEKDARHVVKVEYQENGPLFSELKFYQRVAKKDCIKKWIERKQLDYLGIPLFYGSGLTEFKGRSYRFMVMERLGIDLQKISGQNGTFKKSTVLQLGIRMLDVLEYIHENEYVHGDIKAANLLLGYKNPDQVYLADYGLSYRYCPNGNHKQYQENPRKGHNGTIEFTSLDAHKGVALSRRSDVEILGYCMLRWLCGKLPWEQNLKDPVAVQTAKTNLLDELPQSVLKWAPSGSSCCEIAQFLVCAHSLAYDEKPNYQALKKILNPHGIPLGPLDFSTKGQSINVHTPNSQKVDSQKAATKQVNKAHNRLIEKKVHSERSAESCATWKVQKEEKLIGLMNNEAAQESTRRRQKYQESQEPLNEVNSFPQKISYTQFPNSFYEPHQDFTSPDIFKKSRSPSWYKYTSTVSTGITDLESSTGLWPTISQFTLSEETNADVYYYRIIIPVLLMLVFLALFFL
MAP kinase-interacting serine/threonine-protein kinase 2, sequence (Q9HBH9 whole entry, looked up): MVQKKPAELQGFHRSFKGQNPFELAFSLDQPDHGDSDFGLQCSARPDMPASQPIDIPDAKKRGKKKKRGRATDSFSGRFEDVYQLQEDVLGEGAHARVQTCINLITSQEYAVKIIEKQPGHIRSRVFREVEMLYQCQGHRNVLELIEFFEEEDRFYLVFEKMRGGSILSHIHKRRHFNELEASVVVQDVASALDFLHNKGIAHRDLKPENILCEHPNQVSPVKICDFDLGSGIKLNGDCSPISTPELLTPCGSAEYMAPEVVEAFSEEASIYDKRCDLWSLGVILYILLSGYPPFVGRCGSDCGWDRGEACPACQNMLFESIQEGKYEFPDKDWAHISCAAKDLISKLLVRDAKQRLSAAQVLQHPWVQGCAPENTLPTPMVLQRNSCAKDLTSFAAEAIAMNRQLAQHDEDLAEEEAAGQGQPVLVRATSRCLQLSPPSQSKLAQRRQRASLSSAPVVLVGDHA
Serine/threonine-protein kinase Chk2 (Homo sapiens), sequence (O96017 whole entry, canonical isoform): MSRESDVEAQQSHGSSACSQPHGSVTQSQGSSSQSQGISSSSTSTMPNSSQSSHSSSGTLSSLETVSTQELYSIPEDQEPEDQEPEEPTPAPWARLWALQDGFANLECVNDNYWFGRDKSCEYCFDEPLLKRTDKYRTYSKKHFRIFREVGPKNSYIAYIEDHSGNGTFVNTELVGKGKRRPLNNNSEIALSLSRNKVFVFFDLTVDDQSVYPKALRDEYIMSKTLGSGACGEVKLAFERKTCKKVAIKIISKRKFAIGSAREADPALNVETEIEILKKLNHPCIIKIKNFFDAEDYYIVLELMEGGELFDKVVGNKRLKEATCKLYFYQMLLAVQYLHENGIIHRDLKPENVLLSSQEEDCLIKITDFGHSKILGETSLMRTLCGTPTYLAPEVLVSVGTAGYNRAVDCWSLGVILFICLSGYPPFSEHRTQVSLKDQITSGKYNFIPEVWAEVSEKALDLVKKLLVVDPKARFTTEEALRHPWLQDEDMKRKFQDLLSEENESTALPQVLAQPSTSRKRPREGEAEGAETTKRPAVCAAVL
Cyclin-dependent kinase 17 (Homo sapiens), sequence (Q00537 whole entry, looked up): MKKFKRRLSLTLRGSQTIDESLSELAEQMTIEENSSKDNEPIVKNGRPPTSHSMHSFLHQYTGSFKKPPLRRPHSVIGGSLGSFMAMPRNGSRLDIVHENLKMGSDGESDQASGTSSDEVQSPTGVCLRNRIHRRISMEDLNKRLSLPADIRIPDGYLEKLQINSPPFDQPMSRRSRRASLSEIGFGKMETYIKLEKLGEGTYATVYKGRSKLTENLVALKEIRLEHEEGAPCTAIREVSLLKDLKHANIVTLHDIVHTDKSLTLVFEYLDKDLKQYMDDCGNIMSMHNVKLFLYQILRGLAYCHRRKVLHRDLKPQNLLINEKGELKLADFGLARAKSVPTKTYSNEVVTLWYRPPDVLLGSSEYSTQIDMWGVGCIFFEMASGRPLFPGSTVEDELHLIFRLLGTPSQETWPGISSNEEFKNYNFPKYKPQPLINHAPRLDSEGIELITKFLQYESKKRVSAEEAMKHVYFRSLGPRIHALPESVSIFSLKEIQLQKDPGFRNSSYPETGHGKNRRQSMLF
Casein kinase I isoform gamma-1 (Homo sapiens), sequence (Q9HCP0 whole entry, looked up, canonical isoform): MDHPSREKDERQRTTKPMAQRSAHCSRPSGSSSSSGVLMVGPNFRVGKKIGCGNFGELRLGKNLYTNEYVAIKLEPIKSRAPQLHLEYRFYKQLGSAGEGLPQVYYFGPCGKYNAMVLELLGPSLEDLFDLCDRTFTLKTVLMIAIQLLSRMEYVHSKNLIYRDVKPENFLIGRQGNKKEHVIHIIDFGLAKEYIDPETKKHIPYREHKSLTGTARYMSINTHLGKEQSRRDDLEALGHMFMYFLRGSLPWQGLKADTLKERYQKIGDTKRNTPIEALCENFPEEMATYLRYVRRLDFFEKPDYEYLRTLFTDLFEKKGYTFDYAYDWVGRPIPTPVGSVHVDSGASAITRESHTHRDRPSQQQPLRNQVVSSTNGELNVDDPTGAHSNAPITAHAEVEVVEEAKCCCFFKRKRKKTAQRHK

On to `Cc1ccc(-c2ccc3c(ccc4sc5c(c43)NC[C@@H](C)NC5=O)n2)cn1`, for which the % of inhibition in assay [1] amounted to 44%.
The compound `CCN(CC)CCCCNc1ncc2cc(-c3cc(OC)cc(OC)c3)c(NC(=O)NC(C)(C)C)nc2n1` yielded a % of control in [2] of 100%.
In the case of `Nc1cnc(N2CCc3cc(S(=O)(=O)Nc4c(F)cc(Cl)cc4F)cc(N4CCCC4=O)c32)nc1` [TP-020n], the % of control in assay [3] came out at 100%; in [4], 98%.
Take `CCC(=O)N1CCN(c2ccc(-n3c(=O)ccc4cnc5ccc(-c6cnc7ccccc7c6)cc5c43)cc2C(F)(F)F)CC1`: the % of control in assay [5] and in assay [6] was 100% throughout.
In [7], `COc1cc(Nc2nc(C)cc(-c3cnn4nc(OC)ccc34)n2)cc(C(F)(F)F)c1` came in with a % of control of 91%.
Turning to `C=CC(=O)Nc1cc(-n2c(=O)ccc3cnc4ccc(-c5ccc(NS(C)(=O)=O)cc5)cc4c32)ccc1C`, the % of control in [8] (at 1 µM) and in [8] (at 10 µM) was 100% throughout.
In assay [9], `CNC(=O)Nc1ccc(-c2nc(N3CC4CCC(C3)O4)c3cnn(C4CCC5(CC4)OCCO5)c3n2)cc1` displayed a % of control of 87%.
Turning to `CCc1cccc(CC)c1NC(=O)c1nn(C)c2c1CCc1cnc(Nc3ccc(C(=O)NC4CCN(C)CC4)cc3OC(F)(F)F)nc1-2`, the pIC50 in [10] is < 5.00.
Consider `COc1cc(N(C)c2ccnc3ccc(C(F)(F)F)cc23)cc(OC)c1OC`, for which, in assay [11], the % binding amounted to 79%.
In assay [12], `COCC(=O)NC/C=C/c1ccc2ncnc(Nc3ccc(Oc4ccc(C)nc4)c(C)c3)c2c1` [CP-724714] registered a % of control of 100%.
